From ChEMBL document CHEMBL1139793, “Synthesis, structure analysis, and antibacterial activity of some novel 10-substituted 2-(4-piperidyl/phenyl)-5,5-dioxo[1,2,4]triazolo[1,5-b][1,2,4]benzothiadiazine derivatives” (2007)
Values after ≈ are worked out from the molar mass of the structure shown.

Columns and labels:
Format in all cases: functional
Klebsiella pneumoniae = test: Antibacterial activity against Klebsiella pneumoniae MTCC 618 after 24 hrs by disk diffusion method
[1] = system: Staphylococcus epidermidis; test: Antibacterial activity against Staphylococcus epidermidis MTCC 435 after 24 hrs by disk diffusion method
Pseudomonas aeruginosa = test: Antibacterial activity against Pseudomonas aeruginosa MTCC 424 after 24 hrs by disk diffusion method
Vibrio sp. = test: Antibacterial activity against Vibrio sp. after 24 hrs by disk diffusion method
Bacillus subtilis = test: Antibacterial activity against Bacillus subtilis MTCC 441 after 24 hrs by disk diffusion method
Escherichia coli = test: Antibacterial activity against Escherichia coli MTCC 448 after 24 hrs by disk diffusion method

SMILES | MIC (Klebsiella pneumoniae) | MIC [1] | MIC (Pseudomonas aeruginosa) | MIC (Vibrio sp.) | MIC (Bacillus subtilis) | MIC (Escherichia coli)
O=S(=O)(Nc1ccc(-c2nc3n(n2)S(=O)(=O)c2ccccc2N3c2ccccc2)cc1)c1ccc(F)cc1 | 64 µg/mL (≈ 117 µM) | 16 µg/mL (≈ 29.2 µM) | 32 µg/mL (≈ 58.4 µM) | 32 µg/mL (≈ 58.4 µM) | 16 µg/mL (≈ 29.2 µM) | 16 µg/mL (≈ 29.2 µM)
O=S(=O)(Nc1ccc(-c2nc3n(n2)S(=O)(=O)c2ccccc2N3c2ccccc2)cc1)c1ccc(Cl)cc1Cl | 32 µg/mL (≈ 53.5 µM) | 32 µg/mL (≈ 53.5 µM) | 16 µg/mL (≈ 26.7 µM) | 32 µg/mL (≈ 53.5 µM) | 16 µg/mL (≈ 26.7 µM) | 16 µg/mL (≈ 26.7 µM)
CC(=O)Nc1ccc(S(=O)(=O)Nc2ccc(-c3nc4n(n3)S(=O)(=O)c3ccccc3N4C)cc2)cc1 | 32 µg/mL (≈ 61 µM) | 32 µg/mL (≈ 61 µM) | 32 µg/mL (≈ 61 µM) | 32 µg/mL (≈ 61 µM) | 16 µg/mL (≈ 30.5 µM) | 16 µg/mL (≈ 30.5 µM)
Cc1ccc(S(=O)(=O)Nc2ccc(-c3nc4n(n3)S(=O)(=O)c3ccccc3N4c3ccccc3)cc2)cc1 | 32 µg/mL (≈ 58.9 µM) | 32 µg/mL (≈ 58.9 µM) | 32 µg/mL (≈ 58.9 µM) | 32 µg/mL (≈ 58.9 µM) | 8 µg/mL (≈ 14.7 µM) | 16 µg/mL (≈ 29.4 µM)
Cc1ccc(S(=O)(=O)N2CCC(c3nc4n(n3)S(=O)(=O)c3ccccc3N4C)CC2)cc1 | 64 µg/mL (≈ 135 µM) | 32 µg/mL (≈ 67.6 µM) | 64 µg/mL (≈ 135 µM) | 32 µg/mL (≈ 67.6 µM) | 16 µg/mL (≈ 33.8 µM) | 16 µg/mL (≈ 33.8 µM)
O=S(=O)(Nc1ccc(-c2nc3n(n2)S(=O)(=O)c2ccccc2N3c2ccccc2)cc1)c1ccccc1 | 32 µg/mL (≈ 60.4 µM) | 32 µg/mL (≈ 60.4 µM) | 32 µg/mL (≈ 60.4 µM) | 32 µg/mL (≈ 60.4 µM) | 8 µg/mL (≈ 15.1 µM) | 16 µg/mL (≈ 30.2 µM)
Nc1ccc(S(=O)(=O)Nc2ncccn2)cc1 [SULFADIAZINE] | > 64 µg/mL | 32 µg/mL (≈ 128 µM) | 32 µg/mL (≈ 128 µM) | 16 µg/mL (≈ 63.9 µM) | 16 µg/mL (≈ 63.9 µM) | 16 µg/mL (≈ 63.9 µM)
Nc1ccc(S(N)(=O)=O)cc1 [SULFANILAMIDE] | > 64 µg/mL | > 512 µg/mL | > 512 µg/mL | > 512 µg/mL | > 128 µg/mL | > 128 µg/mL

Continued, values first:

MIC (Klebsiella pneumoniae) | MIC [1] | MIC (Pseudomonas aeruginosa) | MIC (Vibrio sp.) | MIC (Bacillus subtilis) | MIC (Escherichia coli) | SMILES
32 µg/mL (≈ 61.3 µM) | 32 µg/mL (≈ 61.3 µM) | 16 µg/mL (≈ 30.7 µM) | 32 µg/mL (≈ 61.3 µM) | 16 µg/mL (≈ 30.7 µM) | 16 µg/mL (≈ 30.7 µM) | O=S(=O)(c1ccccc1)N1CCC(c2nc3n(n2)S(=O)(=O)c2ccccc2N3c2ccccc2)CC1
32 µg/mL (≈ 54.2 µM) | 32 µg/mL (≈ 54.2 µM) | 32 µg/mL (≈ 54.2 µM) | 16 µg/mL (≈ 27.1 µM) | 16 µg/mL (≈ 27.1 µM) | 16 µg/mL (≈ 27.1 µM) | O=S(=O)(c1ccc(Cl)cc1Cl)N1CCC(c2nc3n(n2)S(=O)(=O)c2ccccc2N3c2ccccc2)CC1
32 µg/mL (≈ 55.3 µM) | 32 µg/mL (≈ 55.3 µM) | 32 µg/mL (≈ 55.3 µM) | 32 µg/mL (≈ 55.3 µM) | 16 µg/mL (≈ 27.6 µM) | 16 µg/mL (≈ 27.6 µM) | CC(=O)Nc1ccc(S(=O)(=O)N2CCC(c3nc4n(n3)S(=O)(=O)c3ccccc3N4c3ccccc3)CC2)cc1
32 µg/mL (≈ 59.3 µM) | 32 µg/mL (≈ 59.3 µM) | 32 µg/mL (≈ 59.3 µM) | 16 µg/mL (≈ 29.7 µM) | 16 µg/mL (≈ 29.7 µM) | 16 µg/mL (≈ 29.7 µM) | O=S(=O)(c1ccc(F)cc1)N1CCC(c2nc3n(n2)S(=O)(=O)c2ccccc2N3c2ccccc2)CC1
32 µg/mL (≈ 69.6 µM) | 32 µg/mL (≈ 69.6 µM) | 64 µg/mL (≈ 139 µM) | 32 µg/mL (≈ 69.6 µM) | 16 µg/mL (≈ 34.8 µM) | 8 µg/mL (≈ 17.4 µM) | CN1c2ccccc2S(=O)(=O)n2nc(C3CCN(S(=O)(=O)c4ccccc4)CC3)nc21
16 µg/mL (≈ 27.3 µM) | 32 µg/mL (≈ 54.5 µM) | 32 µg/mL (≈ 54.5 µM) | 32 µg/mL (≈ 54.5 µM) | 8 µg/mL (≈ 13.6 µM) | 8 µg/mL (≈ 13.6 µM) | CC(=O)Nc1ccc(S(=O)(=O)Nc2ccc(-c3nc4n(n3)S(=O)(=O)c3ccccc3N4c3ccccc3)cc2)cc1
16 µg/mL (≈ 30.3 µM) | 16 µg/mL (≈ 30.3 µM) | 64 µg/mL (≈ 121 µM) | 32 µg/mL (≈ 60.6 µM) | 16 µg/mL (≈ 30.3 µM) | 16 µg/mL (≈ 30.3 µM) | CN1c2ccccc2S(=O)(=O)n2nc(C3CCN(S(=O)(=O)c4ccc(Cl)cc4Cl)CC3)nc21
32 µg/mL (≈ 61.9 µM) | 32 µg/mL (≈ 61.9 µM) | 32 µg/mL (≈ 61.9 µM) | 16 µg/mL (≈ 31 µM) | 32 µg/mL (≈ 61.9 µM) | 8 µg/mL (≈ 15.5 µM) | CC(=O)Nc1ccc(S(=O)(=O)N2CCC(c3nc4n(n3)S(=O)(=O)c3ccccc3N4C)CC2)cc1
16 µg/mL (≈ 29.9 µM) | 32 µg/mL (≈ 59.7 µM) | 32 µg/mL (≈ 59.7 µM) | 32 µg/mL (≈ 59.7 µM) | 16 µg/mL (≈ 29.9 µM) | 16 µg/mL (≈ 29.9 µM) | Cc1ccc(S(=O)(=O)N2CCC(c3nc4n(n3)S(=O)(=O)c3ccccc3N4c3ccccc3)CC2)cc1
16 µg/mL (≈ 33.5 µM) | 32 µg/mL (≈ 67 µM) | 32 µg/mL (≈ 67 µM) | 32 µg/mL (≈ 67 µM) | 32 µg/mL (≈ 67 µM) | 16 µg/mL (≈ 33.5 µM) | CN1c2ccccc2S(=O)(=O)n2nc(C3CCN(S(=O)(=O)c4ccc(F)cc4)CC3)nc21
